Laboratory results taken from US20160038526A1, “TREATMENT OF PROSTATE CANCER” (THOMAS JEFFERSON UNIVERSITY, priority 2012, published 2016).

Legend:
Stat3 = Stat3 (Homo sapiens, UniProt P40763); assay: IL-6-induced Stat3 transcriptional activity, luciferase reporter in LNCaP cells; type: cell-based; conditions: 6.0 μM for 2 h, 50 ng/ml IL-6 for 16 h
Method: LNCaP prostate cancer cells were transiently co-transfected with pStat3, pIL-6-receptor (pIL-6R), pStat3-Luc and pRL-TK (Renilla luciferase). The cells were serum-starved for 20 h, pre-treated with N6BAP or the control compound C5 (Ctrl) at 6.0 μM for 2 h followed by stimulation with 50 ng/ml of IL-6 for 16 h. The relative luciferase activities were determined. S.E. values are indicated by bars.

LNCaP cells = assay: Cell viability, MTS metabolic activity assay, LNCaP; type: cell-based, human; conditions: 72 hours
Method: (§1) CWR22Rv1 prostate cancer cells were treated with N6BAP or the control compound C5 (Ctrl) at 25 μM concentration or vehicle for 24 h. Following trypan blue exclusion, the attached viable vs. de-attached dead cells were counted. […] The bars indicate mean±SD of triplicate wells. In another assay, CWR22Rv1, LNCaP and DU145 cells were treated with N6BAP, the control compound C5 (Ctrl) or vehicle at indicated concentrations. The fraction of alive cells was determined by MTS ([…]) metabolic activity assay (CellTiter 96® AQueous Assay kit). The results are shown in FIGS. 9C, 9D and 9E, respectively.

Stat5a/b = assay: Electrophoresis mobility shift assay (EMSA) of Stat5a/b binding to DNA, nuclear extracts of transfected COS-7 cells; type: cell-based; conditions: 2 hours pretreatment, 10 nmol/L Prl 30 minutes
Method: COS-7 cells were transfected with plasmids expressing Stat5a (pStat5a) and PrlR (pPrlR) using FuGENE6. After 24 hours, the cells were starved in serum-free medium for 16 hours and then pretreated with N6BAP or the control compound C5 for 2 hours and the stimulated with 10 nmol/L Prl for 30 minutes. Nuclear extracts were prepared and a gel EMSA was performed as previously described (Ahonen et al., Endocrinology 2002, 143:228-238; Nevalainen et al., Mol Endocrinol 2002, 16:1108-1124). Double stranded Stat5a/b-binding oligonucleotide probe (upper strand sequence: 5′-[…]-3′) (Boucheron et al., J Biol Chem (1998), 273:33936-33941) were end-labeled with 50 μCi of γ-^32P-ATP (5000 ci/mMol) and incubated (1 ng per reaction) with 10 μl of nuclear extracts in the final volume of 20 μl of the binding mixture (50 mM TrisHCl, pH 7.4, 25 mM MgCl2, 500 mM KCl, 5 mM DTT, 50% glycerol) and 1 μl of 1 mg/ml Poly d[(I:C)]. For a supershift control, the samples were preincubated with anti-Stat5a or anti-Stat5b antibody (Millipore) or NRS as indicated. Polyacrylamide gels (5%) containing 5% glycerol and 0.25×Tris-borate/EDTA were pre-run in 0.25×Tris-borate/EDTA buffer at 4-10° C. for 2-4 h at 300V. The gels were run at room temperature for 2.33 hours at 200 V, dried and exposed to x-ray films (X-Omat, Eastman Kodak Co.). […]

A2058 human melanoma = assay: Cell viability assay, A2058; type: cell-based
Method: as §1
The procedure of Example 9 was followed, substituting cells of the following solid tumor cell lines for the cells treated in Example 9: A549 human lung cancer cells, CAPAN human pancreatic cancer cells, T47D human breast cancer cells, […], A2058 human melanoma and COS-7 monkey fibroblast cell lines.

prostate cancer cells = assay: Induction of apoptotic death of prostate cancer cells (summary of FIGS. 9A-9E); type: cell-based, human
Method: as §1

[1] = test system: human clinical prostate cancer explants; assay: Clinical prostate cancers ex vivo in explant organ cultures: viability of epithelium; type: cell-based; conditions: eight patients, 7 days, N6BAP 5, 10, 25, 50 and 100 μM
From the text: For organ cultures, prostate cancer specimens were obtained during surgery from eight patients with localized or locally advanced prostate cancer undergoing radical prostatectomy and bilateral iliac lymphadenectomy. The specimens are identified in Table 1.
The specimens comprised de-identified excess tissue obtained after the completion of pathology diagnosis. A zero-sample prior to organ culture was formalin-fixed for each individual prostate cancer for the analysis of the nuclear Stat5a/b status. The prostate organ cultures were performed as described earlier (Ahonen et al., Endocrinology (2002), 143:228-238). Briefly, prostate cancer tissue was cut into approximately 1 mm^3 pieces in a plain culture medium and transferred onto lens papers lying on stainless steel grids in petri dishes. […] Tissue explants were cultured in a medium containing the N6BAP or control compound C5 at indicated concentrations (C5: […]; N6BAP: 5, 10, 25, 50 and 100 μM) 7 days, after which the explants were fixed in formalin and analyzed for Stat5a/b activation and viability of prostate cancer epithelial compartment. Viability of the epithelial cells in the prostate cancer explants at the end of the cultures were scored by counting the viable epithelial cells per explant.

Bcl-xL = assay: Expression of Stat5 target gene Bcl-xL in CWR22Rv1 and LNCaP cells (immunoblot); type: cell-based, human; conditions: 25 μM over time
Method: Exponentially growing CWR22Rv1 and LNCaP cells were treated with N6BAP or the control compound C5 (Ctrl) for 48 h at concentrations indicated in FIG. 6 and whole cell lysates were immunoblotted with anti-cyclinD1 mAb. Exponentially growing CWR22Rv1 and LNCaP cells were treated with N6BAP or control compound C5 (Ctrl) at 25 μM for the periods of time indicated in FIG. 6, and whole cell lysates were immunoblotted with anti-cyclinD1 mAb or anti-Bcl-X1 pAb. Cell pellets were solubilized in lysis buffer [10 mM Tris-HCl (pH 7.6), 5 mM EDTA, 50 mM sodium chloride, 30 mM sodium pyrophosphate, 50 mM sodium fluoride, 1 mM sodium orthovanadate, 1% Triton X-100, 1 mM phenylmethylsulfonyl fluoride, 5 μg/ml aprotinin, 1 μg/ml pepstatin A, and […]], rotated end-over-end at 4° C. for 60 min, and insoluble material was pelleted at 12,000×g for 30 min at 4° C. The protein concentrations of clarified cell lysates were determined by simplified Bradford method (Bio-Rad Laboratories, Hercules, Calif.). The following primary antibodies were used for Western blotting, at the following concentrations: anti-β-actin pAb (1:4,000; Sigma), anti-cyclin D1 mAb (1:1000, BD Biosciences) and Bcl-xL pAb (1:1000, Cell Signaling, Danvers, Mass.).

Stat3, sequence (P40763 whole entry, species assumed): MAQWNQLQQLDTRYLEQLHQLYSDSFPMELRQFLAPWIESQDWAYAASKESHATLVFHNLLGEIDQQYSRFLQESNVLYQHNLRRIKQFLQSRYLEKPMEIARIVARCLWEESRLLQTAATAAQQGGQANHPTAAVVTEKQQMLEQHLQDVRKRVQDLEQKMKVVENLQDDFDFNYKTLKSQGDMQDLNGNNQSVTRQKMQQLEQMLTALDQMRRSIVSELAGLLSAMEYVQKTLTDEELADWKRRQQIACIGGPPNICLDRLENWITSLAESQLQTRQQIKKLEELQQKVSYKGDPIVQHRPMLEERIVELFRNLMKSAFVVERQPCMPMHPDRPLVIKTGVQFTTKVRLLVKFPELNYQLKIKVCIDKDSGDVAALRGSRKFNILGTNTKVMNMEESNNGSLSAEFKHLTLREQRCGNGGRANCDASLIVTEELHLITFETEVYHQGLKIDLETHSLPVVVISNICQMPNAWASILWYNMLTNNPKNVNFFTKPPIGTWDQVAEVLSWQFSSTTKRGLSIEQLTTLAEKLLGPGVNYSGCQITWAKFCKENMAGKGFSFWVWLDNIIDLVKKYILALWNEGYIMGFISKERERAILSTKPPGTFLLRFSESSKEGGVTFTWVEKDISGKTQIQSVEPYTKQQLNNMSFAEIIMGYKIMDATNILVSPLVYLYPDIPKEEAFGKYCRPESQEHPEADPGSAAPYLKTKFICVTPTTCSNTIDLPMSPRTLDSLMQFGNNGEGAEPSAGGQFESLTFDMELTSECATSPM

O=P(O)(O)OC[C@H]1O[C@@H](n2cnc3c(NCc4ccccc4)ncnc32)[C@H](O)[C@@H]1O [N6BAP, N^6-benzyladenosine-5′-monophosphate]
transcriptional activity of Stat3 (Stat3): does not inhibit the transcriptional activity of Stat3 | number of viable cells (LNCaP cells): decreases the number of viable cells | binding of Stat5a/b to DNA (EMSA) (Stat5a/b): inhibited binding of Stat5a/b to DNA | cell viability (A2058 human melanoma): did not affect the viability | treatment time required to induce prostate cancer cell apoptosis (prostate cancer cells): at least 48 hours | apoptotic death of prostate cancer cells (prostate cancer cells; CWR22Rv1, LNCaP, DU145): induces apoptotic death of prostate cancer cells | viability of prostate cancer epithelium in explant organ cultures [1]: induced extensive death of prostate cancer epithelium | expression of Bcl-xL (Bcl-xL): down-regulates expression
